Experiments:
Type in all cases: ADME, organism-based
[1] = AUC in rat at 5 mg/kg, po; set-up: dose 5 mg/kg, route oral; settings: plasma
[2] = Oral bioavailability in rat at 5 mg/kg; settings: in vivo
[3] = Cmax in rat at 5 mg/kg, po; set-up: dose 5 mg/kg, route oral; settings: in vivo

AUC [1] [µM·h]	bioavailability [2] [%]	Cmax [3] [nM]	SMILES
0.84	29	260	CC(C)(C#Cc1ccc(NC(=O)CSc2nnnn2-c2ccc(C3CC3)cc2Cl)c(Cl)c1)CNCC(=O)O
9.5	66	5000	CC(C)(C#Cc1ccc(NC(=O)CSc2nnnn2-c2ccc(C3CC3)cc2Cl)c(Cl)c1)C(=O)O
1	21	280	CC(C)(C#Cc1ccc(NC(=O)CSc2nnnn2-c2ccc(C3CC3)cc2Cl)c(Cl)c1)NC(=O)CN

From ChEMBL document CHEMBL1149570, “Thiotetrazole alkynylacetanilides as potent and bioavailable non-nucleoside inhibitors of the HIV-1 wild type and K103N/Y181C double mutant reverse transcriptases” (Bioorg Med Chem Lett, 2007)
